In the assay the test system is M-Rezeptoren der Bronchien, des Herzens und der Harnblase. In words: Effect on M receptors of bronchi, heart and urinary bladder of anaesthetised guinea pigs (acetylcholine-induced bronchoconstriction, bradycardia, bladder tension). The assay is classed as in vivo, Meerschweinchen. The text has this: 1. Wirkung auf M-Rezeptoren der Bronchien, des Herzens und der Harnblase anaesthetisierter Meerschweinchen
Meerschweinchen beiderlei Geschlechts (550-600 g Körpergewicht) wurden mit Urethan (1,4 gikg, i.p.) anaesthetisiert. Eine Kanüle wurde zur Injektion der Wirkstoffe in die Jugularvene eingeführt. 220 1.U."kg Heparin wurden intravenös injiziert. Es wurde eine Kanüle in die Trachea eingeführt; die Tiere wurden künstlich mit sauerstoffangereicherter Luft mittels einer positiven Druckpumpe (Braun-Melsungen) bei einer Rate von 80 Schlägen pro Minute beatmet. Ein Ast der Trachealkanüle wurde mit einem Wassermanometer von 10 cm Höhe verbunden. Das Beatmungsvolumen wurde so eingestellt, daß der maximale intratracheale Druck während der Beatmung gerade den Druck einer 10 cm-Wassersäule erreichte.
Die Werte wurden mit einem IFD Aufnahmegerät registriert. Vor dem Versuch wurde die Trachea für eine kurze Zeit abgeklemmt, um den maximal möglichen Grad der Bronchokonstriktion zur Kalibrierung zu erzeugen. […] Die Herzfrequenz wurde mit einem Frequenzmesser, der durch arterielle Pulswellen ausgelöst wird, gemessen.
Es wurde ein kleiner medianer Bauchschnitt gesetzt und die Harnblase an einem Kraft-Transducer unter einer Ruhespannung von 1 Gramm angebunden.
Die zu testenden Wirksubstanzen wurden über die Jugularvene injiziert, 5 Minuten später wurde die Spannungszunahme der Blase (in Gramm), der Bronchialwiderstand (in %) und die Abnahme der Herzfrequenz (Schläge pro Minute) nach Gabe von Acetylcholin (50 ug/kg i.v. und i.a.) gemessen. Es wurden dosis-abhängige Kurven durch Wiedergabe der prozentualen Hemmung der Bronchokonstriktion, Bradycardie und der Spannungszunahme der Blase gegen den Logarithmus der Dosis (mol/kg) der zu untersuchenden Wirkstoffe aufgezeichnet. Die Ergebnisse werden angegeben als Mittel- werte (n=4-6). Ergebnisse siehe Tabelle I.

Where [1] appears, read: qualitative statement on reference substances, summing up the tests of Tabelle I-III.

Consider `CN1C2CCC1CC(OC(=O)C(CO)c1ccccc1)C2` (racemic) [Z, Atropin], for which the “Selektivität (glatte Muskulatur gegenüber Herzfrequenz oder Speichelsekretion)” value (shortened to “Selektivität”) (in vivo) is “keine Selektivität”.

As for `CCN(CC)CC1CCCCN1CC(=O)N1c2ccccc2C(=O)Nc2cccnc21` (stereo not drawn) [X, 11-[[2-[(Diethylamino)methyl]-1-piperidinyl]acetyl]-5,11-dihydro-6H-pyrido[2,3-b][1,4]benzodiazepin-6-on], the “Selektivität” value under setting [1] is reported as “höhere Wirksamkeit auf kardiale Muskarinrezeptoren”.

As to `CN1CCN(CC(=O)N2c3ccccc3C(=O)Nc3cccnc32)CC1` [Y, 5,11-Dihydro-11-[(4-methyl-1-piperazinyl)acetyl]-6H-pyrido[2,3-b][1,4]benzodiazepin-6-on], under setting [1], the “Selektivität” value is reported as “keine Selektivität”.

(Values after patent EP0417631A2, “Condensed diazepinones, process for their preparation, and medicaments containing these compounds” (Dr. Karl Thomae GmbH, priority 1989, dated 1991).)
